Experiment [1] concerns ischemia induced by middle cerebral artery occlusion (MCAO). Kind of experiment: Pretreatment with estrogen compounds before middle cerebral artery occlusion (MCAO) in ovariectomized rats: mortality and ischemic area. The experiment is classed as in vivo, rat. As to conditions: for reduction of ischemic area: 5 mm Silastic tube 24 h prior to MCAO.
Experiment [2] has the same test system. The experiment is described as follows: Post-treatment at 0.5, 1, 2, 3 and 4 hours after MCAO: ischemic lesion volume by TTC staining. The format is in vivo, rat. Conditions: iv 100 μg/kg HPCD-complexed 17β-estradiol plus Silastic pellet at 0.5, 1, 2 or 3 hours post-occlusion; 48 hours after MCAO.
Experiment [3] has as its system Primary rat brain capillary endothelial cells (BCEC). The experiment is described as follows: Brain capillary endothelial cell (BCEC) mortality under hypoglycemia, Trypan blue. Conditions: 2 nM.
Experimental: The control consists of the ethanol vehicle only. The glucose concentrations in the cell media were adjusted from 20 mg % to 200 mg % by adding appropriate amount of D-(+)-glucose to the glucose-free media. BCEC were incubated for 24 hours (a) and 48 hours (b). Trypan blue staining was used to distinguish live cells from dead cells. Two cell countings at two different hemacytometer squares were averaged. Mean±SEM are depicted (n=8-12). *p<0.05 vs. corresponding vehicle control.
(§1) Primary rat brain capillary endothelial cells (BCEC) cultures were prepared following the method of Goldstein, J. Neurochemistry vol.
Hypoglycemia experiments were undertaken. […] The glucose concentration of the culture media was then adjusted from 20 mg % to 200 mg % by adding appropriate amount of D-(+)-glucose to the glucose-free media and monitored by Glucose and L-Lactate Analyzer (YSI model 2300 STAT plus, YSI, Inc., Yellow Springs, Ohio). The hypoglycemic cultures were maintained for 24 hours or 48 hours prior to staining with Trypan blue.
(§2) Cell mortality was counted using Trypan blue staining method. Cell death percentage was calculated as dead cell/alive cell ×100%.
(§3) Statistical treatment included two-way analysis of variance applied to determine the significance of the difference among the experimental groups. Kruskal-Wallis nonparametric analysis was used for data presented as percentage. […] P<0.05 was considered significant.
Experiment [4] has the same test system. Kind of experiment: BCEC mortality under combined anoxia and hypoglycemia, Trypan blue. As to conditions: 2 nM; 100 mg % glucose; anoxia 2 hours.
Experimental: Cell media contained 200 mg % or 100 mg % glucose. Culture dishes containing BCEC were placed in either an incubator or a nitrogen filled chamber for two hours. Trypan blue staining was used to distinguish live cells from dead cells. Two cell countings at two different hemacytometer squares were averaged. Mean ±SEM are depicted (n=8.12). *<0.05 vs. corresponding vehicle control.
as §1
Nitrogen gas was influxed to replace the oxygen inside the chamber. The chamber was sealed and placed in the incubator for four hours for nonhypoglycemic cultures and 2 hours for hypoglycemic cultures.
as §2, §3

On to `C[C@]12CC[C@@H]3c4ccc(O)cc4CC[C@H]3[C@@H]1CC[C@H]2O` [17α-estradiol], for which the figures for the “reduction of ischemic area” value in experiment [1] (slice C), in experiment [1] (slice D) and in experiment [1] (slice E) were 55%, 66% and 81%, respectively. Also, the “protective effect in tissue slices (FIG. 3)” value in experiment [1] (sustained subcutaneous delivery initiated 24 hours prior to ischemic event, slices A-E) is “significant protective effect”.

As to `C[C@]12CC[C@@H]3c4ccc(O)cc4CC[C@H]3[C@@H]1CC[C@@H]2O` [17β-estradiol], in experiment [2], the “protection, ischemic lesion volume (TTC staining)” value is listed as “significant protection”. Moreover, in experiment [1] (pretreatment 24 h prior to MCAO, 3 brain slices, sham 25.6±5.7%), the “ischemic area, percent of cross-sectional area of brain sections” value is 9.8±4.0%. Moreover, in experiment [1] (sc injection two hours prior to ischemic event, slices A-D), the “protective effect in tissue slices (FIG. 2)” value is recorded as “significant protective effect”. Also, the “cell loss saved compared with control” value in experiment [3] (media glucose 20 mg %) amounted to 23%; in experiment [3] (media glucose 40 mg %), 28.4%; in experiment [3] (media glucose 100 mg %), 35.9%. The “protection from cumulative effect of hypoglycemia and anoxia” value in experiment [4] is given as “effective in protecting”.

For the origin of these results see patent US20020052353A1, “Methods of prevention and treatment of ischemic damage” (priority 1999, published 2002).
